Measurements as given in patent US6677336B2, “Substituted piperazine compounds” (CV Therapeutics, Inc., priority 2000, dated 2004).

Assays:
[1] = tested on: mitochondrial fatty acid oxidation (rat heart mitochondria); experiment: Palmitoyl CoA oxidation in isolated rat heart mitochondria; type: biochemical; details: 15 min at 30° C, DMSO control
Experimental: Compounds of this invention were evaluated in a rat heart mitochondiral assay as set forth below.
(§1) Rat heart mitochondria were isolated by the method of Nedergard and Cannon (methods in Enzymol. 55, 3, 1979).
Palmitoyl CoA oxidation—The Palmityl CoA oxidation was carried out in a total volume of 100 micro liters containing the following agents: 110 mM KCl, 33 mM Tris buffer at pH 8, 2 mM KPi, 2 mM MgCl2, 0.1 mM EDTA, 14.7 microM defatted BSA, 0.5 mM malic acid, 13 mM carnitine, 1 mM ADP, 52 micrograms of mitochondrial protein, and 16 microM 1-C14 palmitoyl CoA (Sp. Activity 60 mCi/mmole; 20 microCi/ml, using 5 microliters per assay). The compounds of this invention were added in a DMSO solution at the following concentrations: 100 microM, 30 microM, and 3 microM. In each assay, a DMSO control was used. After 15 min at 30° C., the enzymatic reaction was centrifuged (20,000 g for 1 min), and 70 microliters of the supernatant was added to an activated reverse phase silicic acid column (approximately 0.5 ml of silicic acid). The column was eluted with 2 ml of water, and 0.5 ml of the eluent was used for scintillation counting to determine the amount of C^14 trapped as C^14 bicarbonate ion.

[2] = tested on: mitochondrial fatty acid oxidation (rat heart mitochondria); experiment: Palmitoyl carnitine oxidation in isolated rat heart mitochondria; type: biochemical; details: 15 min at 30° C, DMSO control
Experimental: as §1
The Palmitoyl carnitine oxidation was carried out in a total volume of 100 microliters containing the following agents: 110 mM KCl, 33 mM Tris buffer at pH 8, 2 mM KPi, 2 mM MgCl2, 0.1 mM EDTA, 0.1 mg/ml of defatted BSA, 0.5 mM malic acid, 3 mM ADP, 52 micrograms of mitochondrial protein, and 43 microM 1-C14 palmitoyl carnitine (Sp. Activity 60 mCi/mmole; 20 microCi/ml, using 5 microliters per assay). The compounds of this invention were added in a DMSO solution at the following concentrations: 100 microM, 30 microM, and 3 microM. In each assay, a DMSO control was used. After 15 min at 30° C., the enzymatic reaction was centrifuged (20,000 g for 1 min), and 70 microliters of the supernatant was added to an activated reverse phase silicic acid column (approximately 0.5 ml of silicic acid). The column was eluted with 2 ml of water, and 0.5 ml of the eluent was used for scintillation counting to determine the amount of C^14 trapped as C^14 bicarbonate ion. The data are presented as % activity of control in Table 3, below.

[3] = Metabolic stability in human liver S-9 fractions; details: human liver S9, 30 min at 37 C; for Liver S9 Parent Present relative to Ranolazine: 10 μM, % parent remaining divided by average % ranolazine remaining (57%)
Experimental: After, 30 minutes at 37 C, the amount of parent drug remaining was determined using LC-mass spec. The response factors for each compound was determined by establishing a standard curve and using an internal standard during the analysis of the samples. […] The compounds of this invention were assayed as described in the protocol below and the percentage of parent remaining was divided by the average % of ranolazine remaining (57%) affording a metabolic stability factor.
The purpose of this experiment is to compare the percentages remaining for compounds of this invention with the percentage remaining for ranolazine after 30 minutes of incubation with human liver S9 fractions.
The following reagents were used; Potassium phosphate, 0.5M pH 7.4 (incubation buffer), kept at room temperature; 0.05M MgCl2 kept at 4° C.; P-Nicotinamide adenine dinucleotide phosphate, tetrasodium salt, reduced form (NADPH), 0.02M solution in water (˜16.6mg/mL) from Sigma Lot #79H7044 prepared on day of use. 1 mM of ranolazine or Compounds 43, 45, 47, 52, 70, 74, 76, 78, and 80 in ACN further diluted to obtain 100 μM in 10% ACN; Human S9 stock: 20 mg/mL from Gentest.
Incubation mixtures were prepared as follows:
Combine all components with incubation buffer and re-pipette 200 μL/tube+25 μL of the compound being tested along with 25 μL of S-9.
After 5 min of pre-incubation at 37° C., at 0 and 30 min after starting the reaction, a 50 μl aliquot of the incubation mixture was removed and added to 100 μL of 9:1 acetonitrile: methanol containing the internal standard.
The mixture was centrifuged and a 100 μL aliquot of the supernatant was diluted in 1 mL of solvent C (0.1% Formic Acid in water). Then samples were analyzed for change between the ratio of compound to internal standard at time zero and 30 minutes by LC/MS (injected 10 EL).
Samples were analyzed for the starting compounds and potential metabolite/s by LC/MS using an internal standard and an ODS-C18 column with a flow rate of 0.25 ml/min.

Structure (SMILES)	Inhibition of mitochondrial fatty acid oxidation using palmitoyl CoA as substrate - % of Control ([1]; 30 μM compound)	Inhibition of mitochondrial fatty acid oxidation using palmitoyl CoA as substrate - % of Control ([1]; 100 μM compound)	Inhibition of mitochondrial fatty acid oxidation using palmitoyl carnitine as substrate - % of Control ([2]; 30 μM compound)	Inhibition of mitochondrial fatty acid oxidation using palmitoyl carnitine as substrate - % of Control ([2]; 100 μM compound)	Liver S9 Parent Present relative to Ranolazine [3]	percentage of parent drug remaining at the 30 minute time point ([3]; average of five experiments)	Inhibition of mitochondrial fatty acid oxidation using palmitoyl CoA as substrate - % of Control ([1]; 3 μM compound)	Inhibition of mitochondrial fatty acid oxidation using palmitoyl carnitine as substrate - % of Control ([2]; 3 μM compound)
COc1ccccc1OCC(O)CN1CCN(CC(=O)Nc2c(C)cccc2C)CC1 (racemic) [Ranolazine, (±)-N-(2,6-dimethylphenyl)-4-[2-hydroxy-3-(2-methoxyphenoxy)-propyl]-1-piperazineacetamide, reference compound]	90%	75%	98%	63%	1.0	57%	–	–
COc1ccccc1OCC(O)CN1C(C)CN(CC(=O)Nc2c(C)cccc2C)CC1C (stereo not shown) [Compound 7, N-(2,6-dimethylphenyl)-2-{4-[2-hydroxy-3-(2-methoxy)propyl]-3,5-dimethylpiperazinyl}acetamide]	98%	85%	102%	95%	–	–	107%	109%
COc1ccccc1OCC(O)CN1C[C@@H](C)N(CC(=O)Nc2c(C)cccc2C)C[C@@H]1C (stereo partly drawn) [Compound 15, 2-{(5S,2R)-4-[2-hydroxy-3-(2-methoxyphenoxy)propyl]-2,5-dimethylpiperazinyl}-N-(2,6-dimethylphenyl)acetamide]	97%	78%	98%	82%	1.20	–	103%	106%
COc1ccccc1OCC(O)CN1CCN(CC(=O)Nc2c(C)cccc2C)C(=O)C1 (stereo not shown) [Compound 16, N-(2,6-dimethylphenyl)-2-{4-[2-hydroxy-3-(2-methoxyphenoxy)propyl]-2-oxopiperazinyl}acetamide]	96%	100%	–	64%	0.15	–	–	–
COc1ccccc1OCC(O)CN1CCN(CC(=O)Nc2c(C)cccc2C)C2CCCCC21 (stereo not shown) [Compound 17]	98%	89%	88%	80%	0.45	–	100%	103%
COc1ccccc1OCC(O)CN1CCN(CC(=O)Nc2c(C)cccc2C)CC1(C)C (stereo not shown) [Compound 18, N-(2,6-dimethylphenyl)-2-{4-[2-hydroxy-3-(2-methoxyphenoxy)propyl]-3,3-dimethylpiperazinyl}acetamide]	–	80%	–	17%	–	–	–	–
Cc1cccc(C)c1NC(=O)CN1CCN(CC(O)CCOc2ccc(C(C)(C)C)cc2)CC1 (stereo not shown) [Compound 22]	–	16%	–	25%	–	–	–	–
